In patent US5700481A, “Transdermal drug delivery process” (Takeda Chemical Industries, Ltd., priority 1995, dated 1997):

Tests used:
[1] = Transdermal iontophoretic delivery of salmon calcitonin; serum concentration by radioimmunoassay and bioavailability (AUC relative to intravenous) (Example 1); format: in vivo, SD rat (male, 7-week aged); conditions: for bioavailability (BA): 20 μg per membrane (BSA pretreated), 40 kHz, duty 30%, 15 min x 3 at 5 min interval, vs intravenous AUC
Method: (§1) An abdominal skin of a SD rat (male, 7-week aged) was clipped with a hair clipper and treated with a shaver under pentobarbital-anesthetization, and was slightly rubbed with an absorbent cotton (cotton wool) containing a 70% aqueous solution of ethanol for defatting and disinfection. […] Meanwhile, in the Applicator A shown in FIG. 1, the dried drug was dissolved immediately before use by supplying or feeding water to the membrane from the reservoir. In the applicator B illustrated in FIG. 2, the applicator was first attached or adhered to the skin and then the dried drug was dissolved by supplying 120 μl of a distilled water from an injection tip. Further, a silver chloride electrode (2.5 cm^2) as a reference electrode was adhered and fixed in the opposite part to the adhered part of the applicator via an electrically conductible gel comprising 10% PVA gel containing 0.9% of NaCl in a thickness of 2 mm.
Then, a continuous voltage application for 15 minutes was repeated for 3 times at a time interval of 5 minutes in the following manner. That is, the voltage application was effected by a direct-current pulse application (depolarizing constant voltage square pulse application) with a frequency of 40 kHz and a duty (pulse-duty factor) of 30% using the applicator as an anode and the reference electrode as a cathode, with changing the applied voltage as follows. In the respective voltage application, observed electric current in the initial stage of the voltage application was respectively determined for each rat. The current density as a mean value for the subjects are as follows.
(1) Applicator A: voltage 6 V current density about 0.04 mA/cm^2
(2) Applicator B: voltage 12 V current density about 0.24 mA/cm^2
(3) Applicator C: voltage 12 V current density about 0.24 mA/cm^2
(§2) Blood was took from jugular veins (cervical vein) of the rat and centrifuged at a rate of 12,000 rpm for 10 minutes, and the concentration of the salmon calcitonin in the obtained serum sample was determined by a radioimmunoassay method. The results are illustrated in FIG. 3.

[2] = Transdermal iontophoretic delivery of salmon calcitonin with different amounts in drug-retaining membrane (Example 2); format: in vivo, SD rat (male, 7-week aged); conditions: 12 V
Method: as §1, with “Further, a silver chloride electrode (2.5 cm^2) as a reference electrode was adhered and fixed in the opposite part to the adhered part of the applicator via an electrically conductible gel comprising 10% PVA gel containing 0.9% of NaCl in a thickness of 2 mm.” left out
Blood was took from jugular veins (cervical vein) of the rat and centrifuged at a rate of 12,000 rpm for 10 minutes, and the concentration of the salmon calcitonin in the obtained serum sample was determined by a radioimmunoassay method. […]
(§3) Under pentobarbital-anesthetization, an abdominal skin of a SD rat (male, 7-week aged) was clipped with a hair clipper and treated with a shaver, and was slightly rubbed with an absorbent cotton (cotton wool) containing a 70% aqueous solution of ethanol for defatting and disinfection. […] The current density determined in the initial stage of the voltage application was about 0.24 mA/cm^2 as a mean value of the each rat. […]

[3] = Correlation between initial electric current value and AUC value (Example 3); format: in vivo, SD rat (male, 7-week aged); conditions: in terms of dosage of 20 μg; initial current 0.2 mA/2.5 cm^2 to 0.7 mA/2.5 cm^2 (0.08 to 0.28 mA/cm^2); 48 tests; FIG. 5
Method: as §1, with “Further, a silver chloride electrode (2.5 cm^2) as a reference electrode was adhered and fixed in the opposite part to the adhered part of the applicator via an electrically conductible gel comprising 10% PVA gel containing 0.9% of NaCl in a thickness of 2 mm.” left out
Then, a continuous voltage application for 15 minutes was repeated for 3 times at a time interval of 5 minutes in the following manner. […] In the respective voltage application, observed electric current in the initial stage of the voltage application was respectively determined for each rat. […]
as §3

[4] = Transdermal iontophoretic delivery of salmon calcitonin with stepwise decreased voltage (Example 4); format: in vivo, male SD rat (7-week aged); conditions: for bioavailability (BA): Applicator A, 4 μg per membrane (BAC pretreated), 30 kHz, duty 50%
Method: as §2
An abdominal skin of a male SD rat (7-week aged) was clipped with a hair clipper and treated with a shaver under pentobarbital-anesthetization, and was slightly rubbed with an absorbent cotton holding a 70% aqueous solution of ethanol for defatting and disinfection. […] Immediately before the use of the applicator, the dried drug was dissolved by supplying water from the reservoir. Further, a reference electrode was attached and fixed to the skin in the same manner as Example 1.
Then, in the common condition of a frequency of 30 kHz and a duty of 50%, the calcitonin was transdermally delivered according to the following processes:
(1) a process of applying a voltage of 12 V for 5 minutes and, without interruption, applying a voltage of 7.5 V for 40 minutes,
(2) a process of applying a voltage of 12 V for 15 minutes and, without interruption, applying a voltage of 7.5 V for 30 minutes, and
(3) a process of applying a voltage of 12 V for 15 minutes.
The salmon calcitonin concentrations in the serum were evaluated in the same manner as Example 1, and the results are illustrated in FIG. 6.

## salmon calcitonin
[1]; Applicator A, applied voltage 6 V
  bioavailability (BA): 4.6%
[1]; Applicator A, applied voltage 12 V
  bioavailability (BA): 16.6%
[1]; Applicator B, applied voltage 12 V
  bioavailability (BA): 16.6%
[1]; applied voltage 12 V (iontophoresis (2) and (3)) in comparison with 6 V (1), FIG. 3
  salmon calcitonin concentration in the serum: can be increased in comparison with the iontophoresis (1)
[2]; Applicator B, drug-retaining membrane (1), 10 μg (BAC pretreated), 40 kHz, duty 30%, 15 min x 3 at 5 min interval
  bioavailability (BA): 23.3%
[2]; according to possessing amount (10 or 20 μg), FIG. 4
  serum salmon calcitonin concentration: could be controlled according to the possessing amount
[3]
  AUC value: large AUC values
[4]; process (1): 12 V for 5 min then 7.5 V for 40 min
  bioavailability (BA): 13.6%
[4]; process (2): 12 V for 15 min then 7.5 V for 30 min
  bioavailability (BA): 14.2%
[4]; process (3): 12 V for 15 min
  bioavailability (BA): 3.6%
[4]; processes (1) and (2) compared with process (3), FIG. 6
  serum salmon calcitonin concentration: high
